Key:
Assay type in all cases: in vivo
Scirpus juncoides = assay: Test Example 1: herbicidal activity, application before weed generation in submerged conditions (symbol B); settings: application herbicide amount 320 g/ha
Method in brief: (§1)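 Weeds are sown into submerged alluvial soil alongside transplanted 2.5-leaf rice, and the compound, as an emulsion diluted to a set rate, is applied onto the water before emergence. Rating on the 0–5 herbicidal-ratio scale follows 3 weeks of greenhouse growth at 25–30 °C.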

Monochoria vaginalis = assay: Test Example 1: herbicidal activity, application before weed generation in submerged conditions (symbol C); settings: application herbicide amount 320 g/ha
Method in brief: as §1

[1] = test system: Echinochloa crus-galli var. crus-galli; assay: Test Example 3: herbicidal effect by foliage application, Wagner pot (symbol H); settings: application herbicide amount 320 g/ha
Method in brief: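 Post-emergence, paddy-type test: seedlings 14 d old in shallow-flooded (0.1–0.5 cm) alluvial soil, 25–30 °C greenhouse. Emulsion diluted to target rate, sprayed on leaves. Read-out: visual effect on each species at 3 weeks, per set criteria.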

Setaria viridis [2] = assay: Test Example 4: herbicidal effect by soil treatment (symbol G)
Method in brief: (§2)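 Seeds were sown in sterilized diluvial soil, covered with about 1.5 cm of soil, and the soil surface was sprayed with a water-diluted emulsion of the compound at a predetermined rate. Plants grew in a greenhouse at 25° C. to 30° C.; effects were scored visually 3 weeks after application.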

Avena fatua = assay: Test Example 4: herbicidal effect by soil treatment (symbol I)
Method in brief: as §2

Lolium multiflorum Lam. = assay: Test Example 4: herbicidal effect by soil treatment (symbol K)
Method in brief: as §2

Apera spica-venti = assay: Test Example 4: herbicidal effect by soil treatment (symbol L)
Method in brief: as §2

Amaranthus retroflexus [3] = assay: Test Example 4: herbicidal effect by soil treatment (symbol N)
Method in brief: as §2

Chenopodium album [4] = assay: Test Example 4: herbicidal effect by soil treatment (symbol O)
Method in brief: as §2

soybean [5] = assay: Test Example 4: effect on crop by soil treatment (symbol d); settings: for d: soybean, effect grade on crop: 320 g/ha; for d: soybean, effect on crop grade: application herbicide amount 320 g/ha
Method in brief: (§3)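 Steps: fill box with sterilized diluvial soil; sow seed spot-like; cover with ~1.5 cm soil; grow in greenhouse (25° C. to 30° C.).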

wheat = assay: Test Example 4: effect on crop by soil treatment (symbol e); settings: for e: wheat, effect grade on crop: 320 g/ha; for e: wheat, effect on crop grade: application herbicide amount 320 g/ha
Method in brief: as §3

beet = assay: Test Example 4: effect on crop by soil treatment (symbol f); settings: for f: beet, effect grade on crop: 320 g/ha; for f: beet, effect on crop grade: application herbicide amount 320 g/ha
Method in brief: as §3

Setaria viridis [6] = assay: Test Example 5: herbicidal effect by foliage application, plastic box (symbol G); settings: 320 g/ha, 3 weeks after application
Method in brief: (§4)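 Visual herbicidal score, taken three weeks post-application, of seedlings sprayed on the foliage with water-diluted emulsion at a predetermined amount; plants were 14 days old, greenhouse-raised at 25° C. to 30° C.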

[7] = test system: Echinochloa crus-galli var. crus-galli; assay: Test Example 5: herbicidal effect by foliage application, plastic box (symbol H); settings: 320 g/ha, 3 weeks after application
Method in brief: as §4

Abutilon theophrasti = assay: Test Example 5: herbicidal effect by foliage application, plastic box (symbol M); settings: 320 g/ha, 3 weeks after application
Method in brief: as §4

Amaranthus retroflexus [8] = assay: Test Example 5: herbicidal effect by foliage application, plastic box (symbol N); settings: 320 g/ha, 3 weeks after application
Method in brief: as §4

Chenopodium album [9] = assay: Test Example 5: herbicidal effect by foliage application, plastic box (symbol O); settings: 320 g/ha, 3 weeks after application
Method in brief: as §4

Galium spurium = assay: Test Example 5: herbicidal effect by foliage application, plastic box (symbol Q); settings: 320 g/ha, 3 weeks after application
Method in brief: as §4

soybean [10] = assay: Test Example 5: effect on crop by foliage application, plastic box (symbol d); settings: 320 g/ha, 3 weeks after application
Method in brief: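 Box culture: sterile diluvial soil, seeds spot-sown, ~1.5 cm cover, raised under glass at 25–30° C.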

[11] = application herbicide amount 320 g/ha

| Compound | Herbicidal effect grade, B: Scirpus juncoides (Scirpus juncoides) | Herbicidal effect grade, C: Monochoria vaginalis (Monochoria vaginalis) | herbicidal effect on H (Echinochloa crus-galli var. crus-galli), grade 0-5 [1] | G: Setaria viridis, herbicidal effect grade (Setaria viridis [2]; 320 g/ha) | I: Avena fatua, herbicidal effect grade (Avena fatua; 320 g/ha) | K: Lolium multiflorum Lam., herbicidal effect grade (Lolium multiflorum Lam.; 320 g/ha) | N: Amaranthus retroflexus, herbicidal effect grade (Amaranthus retroflexus [3]; 320 g/ha) | O: Chenopodium album, herbicidal effect grade (Chenopodium album [4]; 320 g/ha) | d: soybean, effect grade on crop (soybean [5]) | e: wheat, effect grade on crop (wheat) | f: beet, effect grade on crop (beet) | G: Setaria viridis, herbicidal effect grade (Setaria viridis [6]) | H: Echinochloa crus-galli var. crus-galli, herbicidal effect grade [7] | M: Abutilon theophrasti, herbicidal effect grade (Abutilon theophrasti) | N: Amaranthus retroflexus, herbicidal effect grade (Amaranthus retroflexus [8]) | O: Chenopodium album, herbicidal effect grade (Chenopodium album [9]) | Q: Galium spurium, herbicidal effect grade (Galium spurium) | d: soybean, effect on crop grade (soybean [10]) | G: Setaria viridis, herbicidal effect grade (Setaria viridis [2]; [11]) | I: Avena fatua, herbicidal effect grade (Avena fatua; [11]) | other results |
| --- | --- | --- | --- | --- | --- | --- | --- | --- | --- | --- | --- | --- | --- | --- | --- | --- | --- | --- | --- | --- | --- |
| COC(=O)C(C(C)=O)C1CC(O)=C(c2c(C)cc(C)cc2C)C1=O (stereo not shown) [2-003] | 0 (Herbicidal ratio of 5% or lower (almost no effect)) | 0 (Herbicidal ratio of 5% or lower (almost no effect)) | 5 (Herbicidal ratio of 90% or more (almost completely withered)) | 0 (Herbicidal ratio of 5% or lower (almost no effect)) | 0 (Herbicidal ratio of 5% or lower (almost no effect)) | 5 (Herbicidal ratio of 90% or more (almost completely withered)) | 0 (Herbicidal ratio of 5% or lower (almost no effect)) | 0 (Herbicidal ratio of 5% or lower (almost no effect)) | 0 (Herbicidal ratio of 5% or lower (almost no effect)) | 0 (Herbicidal ratio of 5% or lower (almost no effect)) | 0 (Herbicidal ratio of 5% or lower (almost no effect)) | 5 (Herbicidal ratio of 90% or more (almost completely withered)) | 5 (Herbicidal ratio of 90% or more (almost completely withered)) | 1 (Herbicidal ratio of 5% or higher and lower than 20%) | 0 (Herbicidal ratio of 5% or lower (almost no effect)) | 0 (Herbicidal ratio of 5% or lower (almost no effect)) | 0 (Herbicidal ratio of 5% or lower (almost no effect)) | 0 (Herbicidal ratio of 5% or lower (almost no effect)) | – | – | L: Apera spica-venti, herbicidal effect grade (Apera spica-venti; 320 g/ha): 5 (Herbicidal ratio of 90% or more (almost completely withered)) |
| CC(=O)CC1CC(OC(=O)C(C)(C)C)=C(c2c(C)cc(C)cc2C)C1=O (stereo not shown) [2-018] | 2 (Herbicidal ratio of 20% or higher and lower than 40%) | 1 (Herbicidal ratio of 5% or higher and lower than 20%) | 5 (Herbicidal ratio of 90% or more (almost completely withered)) | – | – | – | – | – | – | – | – | 1 (Herbicidal ratio of 5% or higher and lower than 20%) | 1 (Herbicidal ratio of 5% or higher and lower than 20%) | 0 (Herbicidal ratio of 5% or lower (almost no effect)) | 0 (Herbicidal ratio of 5% or lower (almost no effect)) | – | 0 (Herbicidal ratio of 5% or lower (almost no effect)) | 0 (Herbicidal ratio of 5% or lower (almost no effect)) | 5 (Herbicidal ratio of 90% or more (almost completely withered)) | 0 (Herbicidal ratio of 5% or lower (almost no effect)) | K: Lolium multiflorum Lam., herbicidal effect grade (Lolium multiflorum Lam.; [11]): 5 (Herbicidal ratio of 90% or more (almost completely withered)); L: Apera spica-venti, herbicidal effect grade (Apera spica-venti; [11]): 2 (Herbicidal ratio of 20% or higher and lower than 40%); N: Amaranthus retroflexus, herbicidal effect grade (Amaranthus retroflexus [3]; [11]): 3 (Herbicidal ratio of 40% or higher and lower than 70%); O: Chenopodium album, herbicidal effect grade (Chenopodium album [4]; [11]): 0 (Herbicidal ratio of 5% or lower (almost no effect)); d: soybean, effect on crop grade (soybean [5]): 0 (Herbicidal ratio of 5% or lower (almost no effect)); e: wheat, effect on crop grade (wheat): 0 (Herbicidal ratio of 5% or lower (almost no effect)); f: beet, effect on crop grade (beet): 0 (Herbicidal ratio of 5% or lower (almost no effect)) |
| CON=C(C)CC1CC(OC(=O)c2ccc(S(C)(=O)=O)c(C(=O)OC)c2Cl)=C(c2c(C)cc(C)cc2C)C1=O (stereo not shown) [1-162] | 4 (Herbicidal ratio of 70% or higher and lower than 90%) | 3 (Herbicidal ratio of 40% or higher and lower than 70%) | 5 (Herbicidal ratio of 90% or more (almost completely withered)) | 5 (Herbicidal ratio of 90% or more (almost completely withered)) | 3 (Herbicidal ratio of 40% or higher and lower than 70%) | 5 (Herbicidal ratio of 90% or more (almost completely withered)) | 4 (Herbicidal ratio of 70% or higher and lower than 90%) | 0 (Herbicidal ratio of 5% or lower (almost no effect)) | 0 (Herbicidal ratio of 5% or lower (almost no effect)) | 4 (Herbicidal ratio of 70% or higher and lower than 90%) | 0 (Herbicidal ratio of 5% or lower (almost no effect)) | 5 (Herbicidal ratio of 90% or more (almost completely withered)) | 5 (Herbicidal ratio of 90% or more (almost completely withered)) | 4 (Herbicidal ratio of 70% or higher and lower than 90%) | 1 (Herbicidal ratio of 5% or higher and lower than 20%) | 4 (Herbicidal ratio of 70% or higher and lower than 90%) | 4 (Herbicidal ratio of 70% or higher and lower than 90%) | 2 (Herbicidal ratio of 20% or higher and lower than 40%) | – | – | – |
| Cc1cc(C)c(C2=C(O)CC(CC(=O)c3ccc(F)cc3)C2=O)c(C)c1 (stereo not shown) [2-032] | 4 (Herbicidal ratio of 70% or higher and lower than 90%) | 1 (Herbicidal ratio of 5% or higher and lower than 20%) | 5 (Herbicidal ratio of 90% or more (almost completely withered)) | – | – | – | – | – | – | – | – | 5 (Herbicidal ratio of 90% or more (almost completely withered)) | 5 (Herbicidal ratio of 90% or more (almost completely withered)) | 0 (Herbicidal ratio of 5% or lower (almost no effect)) | 0 (Herbicidal ratio of 5% or lower (almost no effect)) | 0 (Herbicidal ratio of 5% or lower (almost no effect)) | 0 (Herbicidal ratio of 5% or lower (almost no effect)) | 0 (Herbicidal ratio of 5% or lower (almost no effect)) | 5 (Herbicidal ratio of 90% or more (almost completely withered)) | 0 (Herbicidal ratio of 5% or lower (almost no effect)) | K: Lolium multiflorum Lam., herbicidal effect grade (Lolium multiflorum Lam.; [11]): 5 (Herbicidal ratio of 90% or more (almost completely withered)); N: Amaranthus retroflexus, herbicidal effect grade (Amaranthus retroflexus [3]; [11]): 0 (Herbicidal ratio of 5% or lower (almost no effect)); O: Chenopodium album, herbicidal effect grade (Chenopodium album [4]; [11]): 0 (Herbicidal ratio of 5% or lower (almost no effect)); d: soybean, effect on crop grade (soybean [5]): 0 (Herbicidal ratio of 5% or lower (almost no effect)); e: wheat, effect on crop grade (wheat): 0 (Herbicidal ratio of 5% or lower (almost no effect)); f: beet, effect on crop grade (beet): 0 (Herbicidal ratio of 5% or lower (almost no effect)) |

From patent US11000033B2, “Ketone or oxime compound, and herbicide” (NISSAN CHEMICAL CORPORATION, priority 2014, dated 2021)
